The nature of data set [1]: Determination of lipophilicity by RP-18 HPLC retention (log k′g). The class given is physicochemical. The note with it: RP-18 reversed phase HPLC, gradient elution, ion pair chromatography with triethylammonium cation. The text has this:
Lipophilicity information is thus often only obtained by fragment analysis and corresponding calculations.
An established HPLC method, which is based on retention data on RP-18 reversed phase silica during gradient elution, was used for the determination of lipohilicity.
Instead of log P the method yields the descriptor log k′g, ranking analytes according to their lipophilicity on a logarithmic scale as well. Since charged molecules such as cyclic nucleotides have only hardly any retention on reversed phases, ion pair chromatography with the lipophilic triethylammonium cation is used.

The test system of data set [2] is primary rod-like cells derived from the rd1 mutant mouse. Kind of data set: Primary rod-like cells: cell death by Ethidium Homodimer assay. The note with it: compared to Rp-8-Br-cGMPS and Rp-8-Br-PET-cGMPS; 0.1 μM and 1 μM, 24 hours (FIG. 2).
Procedure: Legend: Primary rod-like cells derived from the rd1 mutant mouse undergo spontaneous cell death 11 days after differentiation. Rod-like cells were exposed to compounds at day 10 of culture and analyzed 24 hours later. A.: 0.1 μM concentration of tested compounds. B.: 1 μM concentration of tested compounds. Percentage of dying cells was evaluated by Ethidium Homodimer assay. Untreated cells are shown as control sample (black bar). Reference compounds Rp-8-Br-cGMPS and Rp-8-Br-PET-cGMPS are shown as dashed bars. Data are shown as means±SD from at least three biological replicates.
Primary rod-like cells were obtained by isolating stem cells from the ciliary epithelium of murine eyes.^15 The cells are cultured until they form neurospheres in DMEM/F12 with FGF (20 ng/ml), Heparin (2 μg/ml), N2 (1x), Glucose (0.6%), HEPES (5 μM) and 1% Penicillin/Streptomycin. Single neurospheres are picked and plated onto glass slides coated with ECM in the same medium as before with the exception of reduced FGF concentration (10 ng/ml) to induce adhesion. […] To assess cell death, microphotographs were taken from three different slides for each compound concentration and the total number of cells, as well as the number of dying Ethidium Homodimer positive cells, were counted in each picture. […]
The test system of data set [3] is photoreceptors of rd1 explants. The data set is described as follows: Retinal explants: photoreceptor cell death by TUNEL stain. Particulars: 50 μM. The class given is cell-based, mouse. The procedure:
Legend: The animals at the age of postnatal day 5 (PN5) were killed by decapitation and retinas were dissected out with retinal pigment epithelium attached as described previously.^9 The retinas were flattened out on the membranes of commercially available 6-well culture inserts, after which 1.5 ml of a custom made culturing medium was added to each well. These explants were then kept in culture for two days without any treatment after which the test analogue of the invention at the desired concentration was added at a medium change at PN7 (“7” in Figure). There was then a new medium change at PN9 (“9” in Figure), with same concentration of analogue of the invention, upon which the cultures were kept until PN11 (“11” in Figure). At this time point the experiment was finished by a fixation procedure. This paradigm is therefore called PN5+2+4. […]
Legend: Effects of selected analogues at given concentrations of the invention on the cell death of photoreceptors of rd1 explants. The cell death was assessed by so called TUNEL stain on fixated and sectioned material, after which the number of dying cells was counted and analysed, and compared with that from untreated rd1 explants. In order to allow more direct comparisons between the different analogues and concentrations a ratio of treated/untreated specimens was calculated. […]

Marks after values point to notes of the source that are not given here.

Consider `Nc1nc2c(nc(Br)n2[C@@H]2O[C@@H]3COP(O)(=S)O[C@H]3[C@H]2O)c(=O)[nH]1` (some centres unmarked) [B, Rp-8-Br-cGMPS, reference compound], for which, in data set [1], the “log k′g” value was 1.285.
As for `O=c1c2nc(Br)n(C3OC4COP(O)(=S)OC4C3O)c2nc2[nH]c(-c3ccsc3)cn12` (centres unmarked) [Compound 23, 8-Bromo-(3-thiophen-yl-1, N^2-etheno)guanosine-3′, 5′-cyclic monophosphorothioate], the “log k′g” value in data set [1] came out at 2.746.
For the molecule `O=c1c2nc(Br)n([C@@H]3O[C@@H]4CO[P@@](O)(=S)O[C@H]4[C@H]3O)c2nc2[nH]c(-c3ccccc3)cn12` [C, Rp-8-Br-PET-cGMPS, reference compound], in data set [1], the “log k′g” value was found to be 2.831.
Same read-out and setting: to `O=C(CSc1nc2c(=O)n3cc(-c4ccccc4)[nH]c3nc2n1[C@@H]1O[C@@H]2COP(O)(=S)O[C@H]2[C@H]1O)Nc1ccccc1` (single isomer, unassigned) [Compound 33, β-Phenyl-1,N^2-etheno-8-phenylamidomethylthioguanosine-3′,5′-cyclic monophosphorothioate, Rp-isomer] belongs 3.411.
`O=C(CSc1nc2c(=O)n3cc(-c4ccccc4)[nH]c3nc2n1[C@@H]1O[C@@H]2COP(O)(=S)O[C@H]2[C@H]1O)NCCOCCOCCOCCOCCOCCOCCOCCOCCNC(=O)CSc1nc2c(=O)n3cc(-c4ccccc4)[nH]c3nc2n1[C@@H]1O[C@@H]2COP(O)(=S)O[C@H]2[C@H]1O` (stereo partly drawn) [Compound 2, β-Phenyl-1,N^2-ethenoguanosine-3′,5′-cyclic monophosphorothioate[Rp]-[8-thiomethylamido-(octaethoxy)-ethylamidomethylthio-8]-β-phenyl-1,N^2-ethenoguanosine-3′,5′-cyclic monophosphorothioate[Rp]]: in data set [1], the “log k′g” value is 3.236*. The “protective effect against cell death in primary rod-like cells” value in data set [2] is “significantly improved potencies to prevent cell death”.
As to `O=c1c2nc(Sc3ccc(O)cc3)n([C@@H]3O[C@@H]4COP(O)(=S)O[C@H]4[C@H]3O)c2nc2[nH]c(-c3ccccc3)cn12` (single isomer, unassigned) [Compound 34, 8-(4-Hydroxyphenylthio)-β-phenyl-1,N^2-ethenoguanosine-3′,5′-cyclic monophosphorothioate, Rp-isomer], the “log k′g” value in data set [1] stood at 3.078.
For `Nc1nc2c(nc(Sc3ccccc3N)n2[C@@H]2O[C@@H]3CO[P@@](=O)(S)O[C@H]3[C@H]2O)c(=O)[nH]1` (single isomer, unassigned) [Compound 30, 8-(2-Aminophenylthio)guanosine-3′,5′-cyclic monophosphorothioate, Rp-isomer], the “log k′g” value in data set [1] was 1.974.
Still for that read-out and setting: to `Nc1nc2c(ncn2[C@@H]2O[C@@H]3COP(=O)(O)O[C@H]3[C@H]2O)c(=O)[nH]1` [cGMP, guanosine-3′,5′-cyclic monophosphate, reference compound] belongs 0.77.
As to `Cc1ccc(-c2cn3c(=O)c4nc(Br)n([C@@H]5O[C@@H]6COP(O)(=S)O[C@H]6[C@H]5O)c4nc3[nH]2)cc1` (single isomer, unassigned) [Compound 22, 8-Bromo-(4-methyl-β-phenyl-1,N^2-etheno)guanosine-3′,5′-cyclic monophosphorothioate, Rp-isomer], the “log k′g” value in data set [1] amounted to 3.134.
On to `Nc1nc2c(ncn2[C@@H]2O[C@@H]3COP(O)(=S)O[C@H]3[C@H]2O)c(=O)[nH]1` (some centres unmarked) [A, Rp-cGMPS, reference compound], for which the “log k′g” value in data set [1] came to 0.894.
Turning to `Nc1nc2c(nc(SCC(=O)Nc3ccccc3)n2[C@@H]2O[C@@H]3COP(O)(=S)O[C@H]3[C@H]2O)c(=O)[nH]1` (single isomer, unassigned) [Compound 31, 8-Phenylamidomethylthioguanosine-3′,5′-cyclic monophosphorothioate, Rp-isomer], in data set [1], the “log k′g” value is on record as 2.105.
`O=c1c2nc(Br)n([C@@H]3O[C@@H]4CO[P@@](O)(=S)O[C@H]4[C@H]3O)c2nc2[nH]c(-c3ccccc3)cn12` [Rp-8-Br-PET-cGMPS]: in data set [3] (PN5+2+4 paradigm, TUNEL stain, untreated = 1.0), the “photoreceptor cell death, ratio of treated/untreated specimens” value is recorded as “about 0.78”. Further, the “reduction of photoreceptor cell death” value in data set [3] (versus untreated) is “more than 20%”.
For `Nc1nc2c(nc(SCC(=O)NCCOCCOCCOCCOCCOCCOCCOCCOCCNC(=O)CSc3nc4c(=O)[nH]c(N)nc4n3[C@@H]3O[C@@H]4COP(O)(=S)O[C@H]4[C@H]3O)n2[C@@H]2O[C@@H]3COP(O)(=S)O[C@H]3[C@H]2O)c(=O)[nH]1` (some centres unmarked) [Compound 1, Guanosine-3′,5′-cyclic monophosphorothioate[Rp]-[8-thiomethylamido-(octaethoxy)-ethylamidomethylthio-8]-guanosine-3′,5′-cyclic monophosphorothioate[Rp]], the “log k′g” value in data set [1] is 2.039*. For the same molecule, the “protective effect against cell death in primary rod-like cells” value in data set [2] was “significantly improved potencies to prevent cell death”.
As to `O=c1c2nc(Br)n([C@@H]3O[C@@H]4CO[P@@](=O)(S)O[C@H]4[C@H]3O)c2nc2[nH]c(-c3ccc4ccccc4c3)cn12` (single isomer, unassigned) [Compound 24, 8-Bromo-(2-naphthyl-1,N^2-etheno)guanosine-3′,5′-cyclic monophosphorothioate, Rp-isomer], the “log k′g” value in data set [1] was determined as 3.426.

The values are drawn from patent US11407781B2, “Equatorially modified polymer linked multimers of guanosine-3′, 5′-cyclic monophosphates” (GRAYBUG VISION, INC., priority 2016, dated 2022).
